Data as given in patent US20250188075A1, “SUBSTITUTED HETEROCYCLIC CSNK1 INHIBITORS” (The Broad Institute, Inc., priority 2022, published 2025).

Molecular target: human Ether-a-go-go-Related Gene (hERG) potassium channel (Homo sapiens (Human), UniProt Q12809)
Experiment: hERG inhibition assay, automated voltage clamp
Format: cell-based
Details: HEK293 cells stably expressing hERG alpha subunit
Experimental: Following harvest, cells were transferred to the cell reservoir of a 384 channel automated patch clamp device and stored there at 20° C. until usage.
Upon start of the automated voltage clamp procedure, hERG cells were transferred to a 384 well patch clamp chip (pipette resistance of ˜[…] (2) prefilled with external solution (containing in mM: 143 NaCl, 4 KCl, 2 CaCl2), 1 MgCl2, 5 glucose, 10 HEPES; pH 7.4 (NaOH)). Underpressure was applied underneath the glass bottom of the patch clamp chip to position the hERG cells on the recording sites in the glass bottom of the chip. Following successful cell catch, underpressure was stopped and a seal enhancing solution (containing in mM: 78 NaCl, 60 NMDG, 4 KCl, 10 CaCl2), 1 MgCl2, 5 glucose, 10 HEPES; pH 7.4 (HCl)) was added to the hERG cells to facilitate the formation of stable seals between the membranes of the hERG cells and the glass next to the recording sites. Then, hERG cells were washed several times with wash solution (containing in mM: 87 NaCl, 60 NMDG, 4 KCl, 2 CaCl2), 1 MgCl2, 5 glucose, 10 HEPES; pH 7.4 (HCl)) to remove excess seal enhancing solution. In the meantime, the membrane parts of the hERG cells covering the recording sites were exposed to internal solution (containing in mM: 10 NaCl, 123 KF, 10 EGTA, 10 HEPES; pH 7.2 (KOH)) supplemented with 5-20 μM Escin, and the perforated patch configuration was established. Next, the holding potential was stepwise adjusted to −80 mV, capacitance was compensated, and a series of defined voltage commands was initiated to trigger the hERG current response from the hERG cells (−80 mV for 200 ms, +20 mV for 1000 ms, −40 mV for 500 ms; repeated at a frequency of 0.1 Hz). To determine whether the test item inhibits hERG, different solutions were sequentially applied to the hERG cells: First, a negative control (i.e. wash solution supplemented with 0.3% DMSO and 0.01% HSA) was applied for at least 3 min to investigate the basic electrophysiological properties of the hERG cells as well as define their standard current response. Next, a solution containing the test item at a final concentration of (0.1, 1, or 10) μM was applied for 10 min to measure eventual inhibitory effects of the test item on the hERG current (—the test item solution was produced from a 10 mM DMSO stock by using an automated pipetting device and sequential dilution). Finally, a positive control (i.e. wash solution supplemented with 0.3% DMSO, 0.01% HSA, and 10 μM quinidine) was added to the cells for ˜3 min to block the hERG current and, thereby, define the maximum inhibition. For data analysis, experimental results were processed using the automated patch clamp device-specific software as well as a custom-made software, and TIBCO Spotfire. For each successful recording, hERG tail current amplitudes were averaged from three consecutive current responses at the end of the negative control phase, test item phase, and positive control phase, respectively. Resulting mean hERG tail current amplitudes were normalized to the mean hERG tail current amplitude at the end of the negative control phase with nominal 0% inhibition as well as the hERG tail current amplitude at the end of the positive control phase with nominal 100% inhibition. Then, the effect of the test item was calculated as a percentage inhibition value at the test item concentration applied. Finally, percentage inhibition values from all successful recordings at a particular test item concentration were averaged and combined to construct a standard sigmoidal dose response curve, determine the half maximal inhibitory concentration (IC50) of the test item as well as extrapolate its IC20.

human Ether-a-go-go-Related Gene (hERG) potassium channel, sequence (Q12809 whole entry): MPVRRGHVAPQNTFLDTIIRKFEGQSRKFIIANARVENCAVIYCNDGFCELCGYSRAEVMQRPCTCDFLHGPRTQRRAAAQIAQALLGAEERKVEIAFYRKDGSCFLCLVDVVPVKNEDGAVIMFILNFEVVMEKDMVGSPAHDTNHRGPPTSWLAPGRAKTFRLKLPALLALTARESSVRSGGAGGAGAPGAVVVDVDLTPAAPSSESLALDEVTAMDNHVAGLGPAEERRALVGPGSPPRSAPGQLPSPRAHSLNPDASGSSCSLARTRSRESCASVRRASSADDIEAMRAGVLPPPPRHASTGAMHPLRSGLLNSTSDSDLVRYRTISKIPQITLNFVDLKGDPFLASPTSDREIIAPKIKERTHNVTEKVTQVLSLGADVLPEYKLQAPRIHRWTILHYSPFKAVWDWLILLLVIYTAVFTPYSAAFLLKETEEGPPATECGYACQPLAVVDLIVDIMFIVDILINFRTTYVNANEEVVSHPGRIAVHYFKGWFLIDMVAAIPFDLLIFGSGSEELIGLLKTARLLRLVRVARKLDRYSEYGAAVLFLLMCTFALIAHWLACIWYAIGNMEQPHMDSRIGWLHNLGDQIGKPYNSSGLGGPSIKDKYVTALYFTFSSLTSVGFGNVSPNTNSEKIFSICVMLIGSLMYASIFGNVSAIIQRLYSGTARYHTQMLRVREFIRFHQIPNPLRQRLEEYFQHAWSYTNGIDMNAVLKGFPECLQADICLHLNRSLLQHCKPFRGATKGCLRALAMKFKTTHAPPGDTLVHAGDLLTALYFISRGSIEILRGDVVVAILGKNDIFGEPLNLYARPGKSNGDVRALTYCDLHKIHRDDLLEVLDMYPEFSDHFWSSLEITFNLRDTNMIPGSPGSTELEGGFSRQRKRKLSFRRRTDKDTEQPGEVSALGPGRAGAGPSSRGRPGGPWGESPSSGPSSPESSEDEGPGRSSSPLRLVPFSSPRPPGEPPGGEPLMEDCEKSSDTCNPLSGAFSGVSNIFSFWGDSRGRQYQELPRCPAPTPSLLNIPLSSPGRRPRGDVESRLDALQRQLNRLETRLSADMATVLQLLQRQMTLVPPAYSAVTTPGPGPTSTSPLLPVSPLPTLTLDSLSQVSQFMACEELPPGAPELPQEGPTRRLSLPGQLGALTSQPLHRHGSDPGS

| Compound | IC50 [µM] |
| --- | --- |
| Cc1nc(CC(=O)Nc2cc(-c3[nH]c4cccnc4c3-c3ccccn3)ccn2)cs1 [Example 3, 2-(2-methylthiazol-4-yl)-N-[4-[3-(2-pyridyl)-^1H-pyrrolo[3,2-b]pyridin-2-yl]-2-pyridyl]acetamide] | 5.98 |
| Cc1nc(C)c(CC(=O)Nc2cc(-c3[nH]c4cccnc4c3-c3ccccn3)ccn2)s1 [Example 18, 2-(2,4-dimethylthiazol-5-yl)-N-[4-[3-(2-pyridyl)-^1H-pyrrolo[3,2-b]pyridin-2-yl]-2-pyridyl]acetamide] | 2.05 |
| CC(C)n1ccc(CC(=O)Nc2cc(-c3[nH]c4cccnc4c3-c3ccccn3)ccn2)n1 [Example 28, 2-(1-isopropylpyrazol-3-yl)-N-[4-[3-(2-pyridyl)-^1H-pyrrolo[3,2-b]pyridin-2-yl]-2-pyridyl]acetamide] | 8.69 |
| Cn1nc(CC(=O)Nc2cc(-c3[nH]c4cccnc4c3-c3ccccn3)ccn2)cc1C(F)(F)F [Example 21, 2-[1-methyl-5-(trifluoromethyl)pyrazol-3-yl]-N-[4-[3-(2-pyridyl)-^1H-pyrrolo[3,2-b]pyridin-2-yl]-2-pyridyl]acetamide] | 0.81 |
| O=C(Cc1cc2ccccn2n1)Nc1cc(-c2[nH]c3cccnc3c2-c2ccccn2)ccn1 [Example 15, 2-pyrazolo[1,5-a]pyridin-2-yl-N-[4-[3-(2-pyridyl)-^1H-pyrrolo[3,2-b]pyridin-2-yl]-2-pyridyl]acetamide] | 1.45 |
| O=C(Cc1cnco1)Nc1cc(-c2[nH]c3cccnc3c2-c2ccccn2)ccn1 [Example 4] | > 10 |
| O=C(Cc1cnc2ccccc2n1)Nc1cc(-c2[nH]c3cccnc3c2-c2ccccn2)ccn1 [Example 6, N-[4-[3-(2-pyridyl)-^1H-pyrrolo[3,2-b]pyridin-2-yl]-2-pyridyl]-2-quinoxalin-2-yl-acetamide] | 5.35 |
